The results in this text go back to ChEMBL document CHEMBL4350983, “Combining structure- and property-based optimization to identify selective FLT3-ITD inhibitors with good antitumor efficacy in AML cell inoculated mouse xenograft model” (Eur J Med Chem, 2019).

What is called half-life is how long it takes for the measured level to halve. Higher therefore signals slow decline. For orientation: AUC(0-inf) means total exposure, with the tail of the curve extrapolated. Lower therefore signals less exposure. As a reminder, the MRT last is the average time that molecules of a dose stay in the body. One may read the AUC(0-t) as exposure summed from dosing to a finite time, without extrapolation to infinity. A higher AUC(0-t) goes with more exposure. The bioavailability is the share of a dose that reaches the circulation, judged against a reference dose that is usually intravenous. A high value points to much systemic uptake. A word on the Tmax: it is the time from dosing to the highest level. The term Cmax denotes the peak of the concentration-time curve.

Data set [1] can be described thus: Apparent clearance in Sprague-Dawley rat at 5 mg/kg, po measured up to 24 hrs by LC-MS/MS analysis. It counts as ADME, organism-based. Conditions: in vivo, read-out: CL(app) (converted).
A short description of data set [2]: Apparent volume of distribution in Sprague-Dawley rat at 5 mg/kg, po measured up to 24 hrs by LC-MS/MS analysis. It counts as ADME, organism-based. The conditions noted are these: in vivo.
A short description of data set [3]: in vitro. The conditions noted are these: human, liver microsomes.
The conditions of data set [4]: human, microsomes, 0.25 h, 1 µM.
Data set [5] is described as follows: AUC (0 to infinity) in Sprague-Dawley rat at 1 mg/kg, iv measured up to 24 hrs by LC-MS/MS analysis. The class given is ADME, organism-based. Also on record: dose 1 mg/kg, time infinity, route intravenous. The conditions noted are these: in vivo.
Data set [6] can be described thus: Half-life in Sprague-Dawley rat at 1 mg/kg, iv measured up to 24 hrs by LC-MS/MS analysis. The class given is ADME, organism-based. Conditions: in vivo.
Data set [7] is described as follows: Half-life in Sprague-Dawley rat at 5 mg/kg, po measured up to 24 hrs by LC-MS/MS analysis. The class given is ADME, organism-based. The conditions noted are these: in vivo.
A short description of data set [8]: Mean residence time (0 to t) in Sprague-Dawley rat at 5 mg/kg, po measured up to 24 hrs by LC-MS/MS analysis. It counts as ADME, organism-based. Conditions: in vivo.
A short description of data set [9]: Apparent clearance in Sprague-Dawley rat at 1 mg/kg, iv measured up to 24 hrs by LC-MS/MS analysis. Conditions: in vivo, read-out: CL(app) (converted). It counts as ADME, organism-based.
The conditions of data set [10]: rat, microsomes, 0.25 h, 1 µM.
Data set [11] is described as follows: in vitro. The conditions noted are these: rat, liver microsomes. (In general: Microsomes from liver hold many membrane-bound enzymes, among them those of drug oxidation.)
A short description of data set [12]: AUC (0 to infinity) in Sprague-Dawley rat at 5 mg/kg, po measured up to 24 hrs by LC-MS/MS analysis. The class given is ADME, organism-based. On the set-up: dose 5 mg/kg, route oral, time infinity. Conditions: in vivo.
Data set [13] can be described thus: AUCt in Sprague-Dawley rat at 1 mg/kg, iv measured up to 24 hrs by LC-MS/MS analysis. The class given is ADME, organism-based. Conditions: in vivo. Also on record: dose 1 mg/kg, time < 24 hr, route intravenous.
Data set [14] in a line: AUCt in Sprague-Dawley rat at 5 mg/kg, po measured up to 24 hrs by LC-MS/MS analysis. Conditions: in vivo. Also on record: time < 24 hr, dose 5 mg/kg, route oral. It counts as ADME, organism-based.
Data set [15] can be described thus: Oral bioavailability in Sprague-Dawley rat at 5 mg/kg measured up to 24 hrs by LC-MS/MS analysis. The class given is ADME, organism-based. The conditions noted are these: in vivo.
A short description of data set [16]: Tmax in Sprague-Dawley rat at 5 mg/kg, po measured up to 24 hrs by LC-MS/MS analysis. It counts as ADME, organism-based. The conditions noted are these: in vivo.
The nature of data set [17]: Mean residence time (0 to t) in Sprague-Dawley rat at 1 mg/kg, iv measured up to 24 hrs by LC-MS/MS analysis. The class given is ADME, organism-based. Conditions: in vivo.
A short description of data set [18]: Cmax in Sprague-Dawley rat at 1 mg/kg, iv measured up to 24 hrs by LC-MS/MS analysis. The conditions noted are these: in vivo. It counts as ADME, organism-based. Also on record: dose 1 mg/kg, route intravenous.
Data set [19] can be described thus: Cmax in Sprague-Dawley rat at 5 mg/kg, po measured up to 24 hrs by LC-MS/MS analysis. It counts as ADME, organism-based. On the set-up: dose 5 mg/kg, route oral. The conditions noted are these: in vivo.
Data set [20] is described as follows: Apparent volume of distribution in Sprague-Dawley rat at 1 mg/kg, iv measured up to 24 hrs by LC-MS/MS analysis. It counts as ADME, organism-based. Conditions: in vivo, read-out: Vz.

On to `CN1CCC(Nc2ccc(C(=O)Nc3cc(-c4ccc5c(c4)OCO5)n[nH]3)cc2)CC1`, for which the CL/F in data set [1] was 445 mL/min/kg. For the same molecule, the Vz in [2] was 105.05 L/kg. The values for the half-life at 0.25 h, 1 µM in “in vitro [3]” and in “in vitro [11]” were 1.95 h and 8.27 min, respectively. Moreover, the CLH is 0.0118 mL/min/kg in data set [4] and 0.168 mL/min/kg in [10]. In addition, the figures for the AUC(0-inf) in [5] and in data set [12] were 161 ng·h/mL and 194 ng·h/mL, respectively. In addition, the half-life was 1.96 h in [6] and 3.07 h in data set [7]. For the same molecule, the mean residence time (MRT last) at 24 h came to 5.9 h in data set [8] and 2.75 h in data set [17]. The clearance in data set [9] is 110 mL/min/kg. The figures for the AUC(0-t) at 24 h in [13] and in data set [14] were 152 ng·h/mL and 173 ng·h/mL, respectively. The molecule also had a bioavailability in data set [15] of 22.8%. Moreover, in data set [16], the Tmax is 2.83 h. Further, the peak concentration (Cmax) in data set [18] was determined as 205 ng/mL; in data set [19] it was 27 ng/mL. Besides, the Vd in data set [20] was 18.2 L/kg.
